Data published in patent publication US9781930B2, “3′-substituted-abscisic acid derivatives” (Valent BioSciences Corporation, priority 2014, dated 2017).

Columns and labels:
rice seedling = conditions: according to Ueno, et al.; cited from earlier work
(S)-ABA 8′-hydroxylase = target: T1, (S)-ABA 8′-hydroxylase (Arabidopsis thaliana, UniProt Q9FH76); conditions: according to Ueno, et al.; cited from earlier work
T1 sequence (Q9FH76 1-463): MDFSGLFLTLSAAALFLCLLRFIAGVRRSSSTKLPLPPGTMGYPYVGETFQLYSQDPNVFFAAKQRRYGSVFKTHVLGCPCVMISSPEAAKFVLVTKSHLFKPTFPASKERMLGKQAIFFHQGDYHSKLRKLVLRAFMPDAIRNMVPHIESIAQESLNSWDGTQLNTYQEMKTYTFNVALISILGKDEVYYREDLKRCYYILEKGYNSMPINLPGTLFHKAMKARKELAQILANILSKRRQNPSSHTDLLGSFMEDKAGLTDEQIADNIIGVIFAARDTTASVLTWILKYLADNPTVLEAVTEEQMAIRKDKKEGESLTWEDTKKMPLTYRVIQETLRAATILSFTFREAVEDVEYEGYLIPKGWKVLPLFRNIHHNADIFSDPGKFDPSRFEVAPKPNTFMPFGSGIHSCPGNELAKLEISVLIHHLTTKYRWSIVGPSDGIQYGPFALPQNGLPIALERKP

[1] = system: Arabidopsis thaliana seed; experiment: Seed germination assay for testing Examples 29-46; assay type: in vivo; parameters: key: + + + +: The other derivatives were scored by potency relative to S-ABA.; (S)-ABA potency = + + +.; + +: The other derivatives were scored by potency relative to S-ABA.; ++: The other derivatives were scored by potency relative to S-ABA.; +: The other derivatives were scored by potency relative to S-ABA.; −− = no effect; conditions: 0.16-40 μM in 6-well plates, 4 days after vernalization, compared with (S)-ABA
Experimental: Seed Germination Assay for Testing Examples 29-46 To determine the germination inhibition potency of the (±)-ABA derivatives, germination assays were performed with the model plant Arabidopsis thaliana. Arabidopsis seed was sterilized by soaking in 70% ethanol solution for 5 minutes, followed by 5% sodium hypochlorite solution for 10 minutes. The seeds were then washed three times with sterile water. The test compounds were tested in germination assay at five concentrations (0.16, 0.64, 2.5, 10, and 40 μM) with (S)-ABA (0.16, 0.64 and 2.5 μM) as a control in 6-well plates. DMSO stock solutions of (S)-ABA and the derivatives at 1,000 fold of the test concentrations were prepared. The stock solutions (5 μL) of (S)-ABA and the derivatives were added to the wells in the assay plate with 0.8% agar solutions of ½ Murashige and Skoog media. Sixteen sterile seeds were placed on the solid agar medium at an appropriate spacing. The assay plates were sealed with surgical tape and wrapped in aluminum foil, and the seeds were vernalized at 4° C. for 2 days. The assay plates were incubated in a growth chamber at 22.5° C. under daily light cycles of 16 hours (30 μmol/m^2·sec) for 4 days after the vernalization. The germination inhibition potency of the derivatives was scored and compared with that of (S)-ABA. The results are summarized in Table 2 “Table 2: Arabidopsis seed germination inhibition activity of (±)-ABA derivatives.”

SMILES | activity in rice seedling elongation assay compared to (S)-ABA (rice seedling) | activity in (S)-ABA 8′-hydroxylase inhibition assay compared to (S)-ABA ((S)-ABA 8′-hydroxylase) | Arabidopsis seed germination inhibition potency [1]
CC1=C(C)C(O)(/C=C/C(C)=C\C(=O)O)C(C)(C)CC1=O (racemic) [(±)-3′-methyl-ABA] | equal activity to (S)-ABA | lower activity than (S)-ABA | 
CC1=C(CC(C)C)C(=O)CC(C)(C)C1(O)/C=C/C(C)=C\C(=O)O (racemic) [Example 34, (2Z,4E)-5-(1-hydroxy-3-isobutyl-2,6,6-trimethyl-4-oxocyclohex-2-en-1-yl)-3-methylpenta-2,4-dienoic acid] |  |  | −−
CC1=C(C(C)(C)C)C(=O)CC(C)(C)C1(O)/C=C/C(C)=C\C(=O)O (racemic) [Example 35, (2Z,4E)-5-(3-(tert-butyl)-1-hydroxy-2,6,6-trimethyl-4-oxocyclohex-2-en-1-yl)-3-methylpenta-2,4-dienoic acid] |  |  | −−
CC1=C(C2(C)CC2)C(=O)CC(C)(C)C1(O)/C=C/C(C)=C\C(=O)O (racemic) [Example 36, (2Z,4E)-5-(1-hydroxy-2,6,6-trimethyl-3-(1-methylcyclopropyl)-4-oxocyclohex-2-en-1-yl)-3-methylpenta-2,4-dienoic acid] |  |  | −−
CCCCCCC1=C(C)C(O)(/C=C/C(C)=C\C(=O)O)C(C)(C)CC1=O (racemic) [Example 37, (2Z,4E)-5-(3-hexyl-1-hydroxy-2,6,6-trimethyl-4-oxocyclohex-2-en-1-yl)-3-methylpenta-2,4-dienoic acid] |  |  | −−
CC1=C(C2CCCC2)C(=O)CC(C)(C)C1(O)/C=C/C(C)=C\C(=O)O (racemic) [Example 42, (2Z,4E)-5-(3-cyclopentyl-1-hydroxy-2,6,6-trimethyl-4-oxocyclohex-2-en-1-yl)-3-methylpenta-2,4-dienoic acid] |  |  | −−
CC1=C(c2ccccc2)C(=O)CC(C)(C)C1(O)/C=C/C(C)=C\C(=O)O (racemic) [Example 46, (2Z,4E)-5-(3-hydroxy-2,4,4-trimethyl-6-oxo-3,4,5,6-tetrahydro-[1,1′-biphenyl]-3-yl)-3-methylpenta-2,4-dienoic acid] |  |  | −−
